Results reported in the NIST ThermoML archive (doi:10.1016/j.jct.2009.11.003).
Several values for one entry are separate records, joined by “and”; a condition that tells them apart may be missing. Equal entries are not always repeated.

What was measured:
[1] = Crystal, Calculated from knudsen effusion weight loss
[2] = molar enthalpy of vaporization or sublimation; settings: Crystal, Static calorimetry

Nc1c(Cl)cc([N+](=O)[O-])cc1[N+](=O)[O-] [2-chloro-4,6-dinitrobenzenamine]
Settings | molar enthalpy [kcal/mol] | vapor or sublimation pressure
[1], 358.1 K | – | 0.000105 kPa and 0.000103 kPa and 0.00011 kPa
[1], 360.15 K | – | 0.00013 kPa and 0.000133 kPa and 0.000128 kPa
[1], 362.16 K | – | 0.000164 kPa and 0.000161 kPa and 0.000173 kPa
[1], 364.12 K | – | 0.000202 kPa and 0.000198 kPa and 0.000197 kPa
[1], 366.17 K | – | 0.000246 kPa and 0.000248 kPa and 0.00024 kPa
[1], 368.17 K | – | 0.000302 kPa and 0.000297 kPa and 0.000296 kPa
[1], 370.11 K | – | 0.000361 kPa and 0.000368 kPa
[1], 372.08 K | – | 0.000455 kPa and 0.00044 kPa and 0.000426 kPa
[1], 374.14 K | – | 0.00055 kPa and 0.000536 kPa
[1], 376.25 K | – | 0.000684 kPa and 0.000662 kPa and 0.000663 kPa
[1], 378.14 K | – | 0.000816 kPa and 0.000824 kPa and 0.000797 kPa
[1], 380.16 K | – | 0.000996 kPa and 0.000971 kPa and 0.000963 kPa
[2], 298.15 K | 27.5 | –
[2], 369.13 K | 27.3 | –

Nc1c([N+](=O)[O-])cc(Cl)cc1[N+](=O)[O-] [4-chloro-2,6-dinitroaniline]
Settings | molar enthalpy [kcal/mol] | vapor or sublimation pressure
[1], 335.12 K | – | 7.67e-05 kPa and 7.72e-05 kPa and 7.84e-05 kPa
[1], 338.19 K | – | 0.00011 kPa and 0.000108 kPa and 0.000106 kPa
[1], 341.17 K | – | 0.00015 kPa and 0.000145 kPa and 0.000146 kPa
[1], 344.17 K | – | 0.000202 kPa and 0.000201 kPa and 0.000207 kPa
[1], 347.18 K | – | 0.000287 kPa and 0.000284 kPa and 0.000277 kPa
[1], 350.12 K | – | 0.000388 kPa and 0.000386 kPa
[1], 353.12 K | – | 0.00052 kPa and 0.000532 kPa and 0.000527 kPa
[1], 356.17 K | – | 0.000715 kPa and 0.000702 kPa and 0.00071 kPa
[1], 359.16 K | – | 0.000964 kPa and 0.000935 kPa and 0.000922 kPa
[2], 298.15 K | 25.1 | –
[2], 347.1 K | 25.02 | –
